Legend:
colon = experiment: Dextran sodium sulfate (DSS) induced colitis; format: in vivo, FVB mice
[1] = Survival following acetaminophen (Tylenol) overdose; format: in vivo, C57BL/6J mice

## CCCC[S+]([O-])c1sc2nc(-c3cccs3)cc(-c3ccccc3)c2c1N (centres unmarked) [SW033291, 2-(butylsulfinyl)-4-phenyl-6-(thiophen-2-yl)thieno[2,3-b]pyridin-3-amine]
colon; 22 days
  change from baseline weight versus control: greater weight at all time points
colon; colonoscopy days 8, 11, 15
  ulcer formation prevented: two-thirds
colon; day 15
  reduction of length of ulcerated mucosa: 61%
colon; day 22
  body weight and colon length versus control: greater body weight and greater colon lengths
colon; days 8, 11 and 15
  MEICS scores versus control: significantly less colitis activity
[1]; 1 dose/daily, first dose immediately after Tylenol, 24 hrs
  number of mice surviving: 6
[1]; 2 dose/daily, first dose immediately after Tylenol, 24 hrs
  number of mice surviving: 6
[1]; 2 dose/daily, first dose immediately after Tylenol, 48 hrs
  number of mice surviving: 3
[1]; 2 dose/daily, first dose immediately after Tylenol, 64 hrs
  number of mice surviving: 3
[1]; 2 dose/daily, first dose immediately after Tylenol, 72 hrs
  number of mice surviving: 3
[1]; 2 dose/daily, first dose immediately after Tylenol, 88 hr
  number of mice surviving: 3
[1]; 2 dose/daily, first dose immediately after Tylenol, 96 hr
  number of mice surviving: 3
[1]; 2 dose/daily, first dose immediately after Tylenol, 112 hr
  number of mice surviving: 3
[1]; 2 dose/daily, first dose immediately after Tylenol, 120 hr
  number of mice surviving: 3
[1]; acetaminophen 600 mg/kg, 5 mg/kg 1 dose/daily, first dose immediately after Tylenol injection, 16 hr
  number of mice surviving: 6
[1]; acetaminophen 600 mg/kg, 5 mg/kg 2 dose/daily, first dose immediately after Tylenol injection, 16 hr
  number of mice surviving: 6
[1]; acetaminophen 600 mg/kg, 5 mg/kg bid beginning 3 hours prior to acetaminophen, 6 doses, cohort of 6, 16 hr
  Survival (number of mice): 6
[1]; acetaminophen 600 mg/kg, 5 mg/kg bid beginning 48 hours prior to acetaminophen, 9 doses, cohort of 12, 16 hr
  Survival (number of mice): 12
[1]; bid beginning 3 hours prior to acetaminophen
  mice survived at 120 hours: 3 of 6
[1]; bid beginning 3 hours prior to acetaminophen, 24 hrs
  Survival (number of mice): 5
[1]; bid beginning 3 hours prior to acetaminophen, 48 hrs
  Survival (number of mice): 3
[1]; bid beginning 3 hours prior to acetaminophen, 64 hrs
  Survival (number of mice): 3
[1]; bid beginning 3 hours prior to acetaminophen, 72 hrs
  Survival (number of mice): 3
[1]; bid beginning 3 hours prior to acetaminophen, 88 hr
  Survival (number of mice): 3
[1]; bid beginning 3 hours prior to acetaminophen, 96 hr
  Survival (number of mice): 3
[1]; bid beginning 3 hours prior to acetaminophen, 112 hr
  Survival (number of mice): 3
[1]; bid beginning 3 hours prior to acetaminophen, 120 hr
  Survival (number of mice): 3
[1]; bid beginning 48 hours prior to acetaminophen
  mice survived at 120 hours: 10 of 12
[1]; bid beginning 48 hours prior to acetaminophen, 24 hrs
  Survival (number of mice): 12
[1]; bid beginning 48 hours prior to acetaminophen, 40 hrs
  Survival (number of mice): 11
[1]; bid beginning 48 hours prior to acetaminophen, 48 hrs
  Survival (number of mice): 10
[1]; bid beginning 48 hours prior to acetaminophen, 64 hrs
  Survival (number of mice): 10
[1]; bid beginning 48 hours prior to acetaminophen, 72 hrs
  Survival (number of mice): 10
[1]; bid beginning 48 hours prior to acetaminophen, 88 hr
  Survival (number of mice): 10
[1]; bid beginning 48 hours prior to acetaminophen, 96 hr
  Survival (number of mice): 10
[1]; bid beginning 48 hours prior to acetaminophen, 112 hr
  Survival (number of mice): 10
[1]; bid beginning 48 hours prior to acetaminophen, 120 hr
  Survival (number of mice): 10
[1]; dosing begun immediately following acetaminophen, once or twice daily
  survival versus control mice: No difference

— patent US9790233B2, “Compositions and methods of modulating 15-PGDH activity” (CASE WESTERN RESERVE UNIVERSITY, priority 2012, dated 2017)
